ChEMBL document CHEMBL1765021, “Assessing high affinity binding to HLA-DQ2.5 by a novel peptide library based approach” (Bioorg Med Chem, 2011)
Active and inactive are the calls of the source. The calls are words filed in the database; no cut-off is given here. Peptide text beside a SMILES is read from it.

How the values were obtained:
Homo sapiens [1] = organism: Homo sapiens; assay: Binding affinity to MHC class II HLA-DQ2.5 in Epstein-Barr virus-transformed human B lymphocyte
Homo sapiens [2] = organism: Homo sapiens; assay: Ratio of IC50 of peptide P198 for human MHC class II HLA-DQ2.5 to IC50 of peptide for human MHC class II HLA-DQ2.5

`CC(C)C[C@H](NC(=O)[C@H](CCC(=O)O)NC(=O)[C@H](CCC(=O)O)NC(=O)[C@H](CCC(=O)O)NC(=O)[C@H](CCCCN)NC(=O)[C@H](CCC(=O)O)NC(=O)[C@H](C)NC(=O)[C@H](C)NC(=O)[C@@H](N)Cc1ccccc1)C(=O)N[C@@H](CCCNC(=N)N)C(=O)O` (H-FAAEKEEELR-OH) was tested, and the Activity (Homo sapiens [1]) was “Active” and the Ratio IC50 (Homo sapiens [2]) was 0.93.

With `CC(C)[C@H](NC(=O)[C@H](CCCCN)NC(=O)[C@H](CCC(=O)O)NC(=O)[C@H](C)NC(=O)[C@H](C)NC(=O)[C@@H](N)Cc1ccccc1)C(=O)N[C@@H](CCC(=O)O)C(=O)N[C@@H](CCC(=O)O)C(=O)N[C@@H](Cc1ccccc1)C(=O)N[C@@H](CCCNC(=N)N)C(=O)O` (H-FAAEKVEEFR-OH) the Activity (Homo sapiens [1]) was “Active”.

For `CC(C)C[C@H](NC(=O)[C@H](C)NC(=O)[C@H](C)NC(=O)[C@@H](N)Cc1ccccc1)C(=O)N[C@@H](CCCCN)C(=O)N[C@@H](CCC(=O)O)C(=O)N[C@@H](CCC(=O)O)C(=O)N[C@@H](CCC(=O)O)C(=O)N[C@@H](Cc1ccc(O)cc1)C(=O)N[C@@H](CCCNC(=N)N)C(=O)O` (H-FAALKEEEYR-OH), the Activity (Homo sapiens [1]) was “Active”.
